Reference: patent publication US20210179632A1, “THIENOPIPERIDINE DERIVATIVE AND USE THEREOF” (JIANGSU TASLY DIYI PHARMACEUTICAL CO. LTD., priority 2013, published 2021)

Tested on: platelet aggregation induced by ADP
Test: Platelet aggregation induced by ADP in platelet-rich plasma of rats drawn 2 hours after dosing (NJ4 Semi-Platelet Aggregation Analyzer)
Assay type: in vivo
Details: male Wistar rats, 3 mg/kg as suspension in 0.25 wt % CMC, blood drawn 2 hours after administration, negative control 61.22 ± 4.73, * P < 0.001
Description: The maximum aggregation rate of irreversible condensed phase can be used to evaluate the effect of subject products on coagulation function. The experiment used NJ4 type Semi-Platelet Aggregation Analyzer of precil company, to survey the inhibitory effect of the subject products provided by Tasly Holding Group. Co. Ltd on platelet aggregation. • Materials • Animals: male Wistar rats, body weight 230-250 g, bought from Beijing Vital River Laboratory • Animal Technology Co. Ltd., animal certification number:SCXK ( ? ) 2007-0001. • Reagents: ADP, bought from Sigma company; clopidogrel was prepared referring to the method in Chinese Journal of Medicinal Chemistry 2007, 17 (3) 163-165; prasugrel was prepared referring to the method in Chinese Journal of Pharmaceuticals 2012, 43 (8) 647-649; vicagrel was prepared referring to the method in Journal of Medicinal Chemistry, 2012, 55(7), 3342-3352. • Subject products: 7 subject products were all provided by Tasly Holding Group. Co. Ltd. • Administration dosage: subject products were suspensed in CMC in a concentration of 0.25 wt %, were administered in a dosage of 3 mg/kg body weight, the administration volume was 2 ml.
2 hours after administering drugs to the rats, anesthesia with mebubarbital, draw blood from abdominal aorta, anticoagulation with sodium citrate 1:9. Obtained platelet-rich plasma and platelet-poor plasma by centrifugation, the volume ratio of the two was platelet-poor plasma:platelet-rich plasma=3:1.

Row | SMILES | The maximum aggregation rate of platelet irreversible condensed phase
1 | COC(=O)[C@H](c1ccccc1Cl)N1CCc2sccc2C1 [Clopidogrel, reference compound] | 46.77 ± 8.28*
2 | CC(=O)Oc1cc2c(s1)CCN(C(C(=O)C1CC1)c1ccccc1F)C2 (stereo not drawn) [Prasugrel, prasugrel, reference compound] | 20.72 ± 18.84*
3 | COC(=O)[C@H](c1ccccc1Cl)N1CCc2sc(OP(=O)(OC)OC)cc2C1 [TSC-1] | 45.8 ± 3.55*
4 | CCOP(=O)(OCC)Oc1cc2c(s1)CCN([C@H](C(=O)OC)c1ccccc1Cl)C2 [TSC-2] | 41.7 ± 7.43*
5 | COC(=O)[C@H](c1ccccc1Cl)N1CCc2sc(OP(=O)(OC(C)C)OC(C)C)cc2C1 [TSC-3] | 38.7 ± 4.27*
6 | COC(=O)[C@H](c1ccccc1Cl)N1CCc2sc(OP(=O)(Oc3ccccc3)Oc3ccccc3)cc2C1 [TSC-4] | 46.5 ± 8.16*
7 | COC(=O)[C@H](c1ccccc1Cl)N1CCc2sc(OP(=O)(OCC(Cl)(Cl)Cl)OCC(Cl)(Cl)Cl)cc2C1 [TSC-5] | 39.1 ± 5.66*
8 | COC(=O)[C@H](c1ccccc1Cl)N1CCc2sc(OP(=O)(O)O)cc2C1 [TSC-6] | 29.6 ± 5.33*
9 | COC(=O)[C@H](c1ccccc1Cl)N1CCc2sc(OCOP(=O)(OC(C)(C)C)OC(C)(C)C)cc2C1 [TSC-7] | 39.2 ± 6.16*
10 | COC(=O)[C@H](c1ccccc1Cl)N1CCc2sc(OCOP(=O)(O)O)cc2C1 [TSC-8] | 32.7 ± 9.21*
11 | COC(=O)[C@H](c1ccccc1Cl)N1CCc2sc(OS(=O)(=O)O)cc2C1 [TSC-9] | 25.7 ± 3.25*
12 | COC(=O)[C@H](c1ccccc1Cl)N1CCc2sc(OC(C)=O)cc2C1 [Vicagrel, vicagrel, reference compound] | 32.36 ± 5.14*
